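Tested at 5 concentrations; 48 h exposure; 96-well plates; endpoints linearly interpolated, else capped at highest concentration. GI50 is the concentration that inhibits growth by half. TGI: total growth inhibition.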
Key:
Test in all cases: DTP human tumour cell line panel, 48 h
COLO 205 colon = test system: COLO 205 colon
EKVX NSCLC = test system: EKVX NSCLC
HL-60(TB) leukemia = test system: HL-60(TB) leukemia
HOP-62 NSCLC = test system: HOP-62 NSCLC
M14 melanoma = test system: M14 melanoma
NCI-H460 lung = test system: NCI-H460 lung
OVCAR-5 ovarian = test system: OVCAR-5 ovarian
OVCAR-8 ovarian = test system: OVCAR-8 ovarian
TK-10 renal = test system: TK-10 renal
HCC-2998 colon = test system: HCC-2998 colon

Row | SMILES | TGI (COLO 205 colon) | TGI (EKVX NSCLC) | TGI (HL-60(TB) leukemia) | TGI (HOP-62 NSCLC) | TGI (M14 melanoma) | TGI (NCI-H460 lung) | TGI (OVCAR-5 ovarian) | TGI (OVCAR-8 ovarian) | TGI (TK-10 renal) | TGI (HCC-2998 colon) | GI50 (COLO 205 colon) | GI50 (EKVX NSCLC) | GI50 (HCC-2998 colon) | GI50 (HL-60(TB) leukemia) | GI50 (HOP-62 NSCLC) | GI50 (M14 melanoma) | GI50 (NCI-H460 lung) | GI50 (OVCAR-5 ovarian) | GI50 (OVCAR-8 ovarian) | GI50 (TK-10 renal)
1 | N.N.N.O=[N+]([O-])[O-].O=[N+]([O-])[O-].O=[N+]([O-])[O-].O=[N+]([O-])[O-].[Co+3] | > 100 µM | > 100 µM | > 100 µM | > 100 µM | > 100 µM | > 100 µM | > 100 µM | > 100 µM | > 100 µM |  |  |  |  |  |  |  |  |  |  | 
2 | COC(=O)C1C(C(=O)OC)N(Cc2ccccc2)C(=O)N1Cc1ccccc1 (configuration not stated) | > 100 µM | > 100 µM | > 100 µM | > 100 µM | > 100 µM | > 100 µM | > 100 µM | > 100 µM | > 100 µM | > 100 µM |  |  |  |  |  |  |  |  |  | 
3 | CCOC(=O)c1csc(NC(=O)CCN(CC)CC)n1 | 84.8 µM | > 100 µM | > 100 µM | > 100 µM | 64.1 µM | > 100 µM | > 100 µM | 95.9 µM | 62.8 µM | > 100 µM |  |  |  |  |  |  |  |  |  | 
4 | C#CCCCCC#Cc1ccccc1C(=O)OC | > 100 µM | > 100 µM | 29.4 µM | > 100 µM | > 100 µM | > 100 µM | > 100 µM | 31.5 µM | > 100 µM | > 100 µM |  |  |  |  |  |  |  |  |  | 
5 | CCCc1cc(=O)c2c(C)c3[nH]c4ccc(Cl)cc4c3c(C)c2[nH]1 | 3.89 µM | 7.72 µM |  | 6.15 µM | 9.52 µM | 3.79 µM | 5.58 µM | 6.31 µM | 4.06 µM | 3.02 µM |  |  |  |  |  |  |  |  |  | 
6 | O=C(O)CC/C(=N\Nc1nsc2ccccc12)c1ccccc1 | > 100 µM | > 100 µM | 71.9 µM | > 100 µM | > 100 µM | > 100 µM | > 100 µM | > 100 µM | > 100 µM | 90.8 µM |  |  |  |  |  |  |  |  |  | 
7 | C=C(C(=O)C(=O)Oc1ccc(Cl)cc1)C(=O)c1ccc(C)cc1 | > 100 µM | > 100 µM | > 100 µM | > 100 µM | 81.8 µM | > 100 µM | > 100 µM | > 100 µM | > 100 µM | 76 µM |  |  |  |  |  |  |  |  |  | 
8 | C/C(CCOC1CCCCO1)=C(\C)[Si](C)(C)C (configuration not stated) | > 100 µM | > 100 µM | > 100 µM |  | > 100 µM | > 100 µM | > 100 µM | > 100 µM | > 100 µM | > 100 µM |  |  |  |  |  |  |  |  |  | 
9 | CC(C)OP(=O)(OC(C)C)c1c(Nc2ccccc2)n[nH]c1N | > 100 µM | > 100 µM |  | > 100 µM | > 100 µM | > 100 µM | > 100 µM | > 100 µM | > 100 µM | > 100 µM |  |  |  |  |  |  |  |  |  | 
10 | O=C1C(Cl)=C(N2CCN(C3=C(Cl)C(=O)c4ccccc4C3=O)CC2)C(=O)c2ccccc21 | 3.1 µM | 4.91 µM | 1.26 µM | 25.5 µM | 2.87 µM | 13.6 µM | 12.7 µM | 3.16 µM | 3.42 µM | 8.35 µM |  |  |  |  |  |  |  |  |  | 
11 | COCCOCOc1ccc(OCc2ccccc2)cc1 | > 100 µM | 97.3 µM | > 100 µM | > 100 µM |  | > 100 µM | > 100 µM | > 100 µM |  | > 100 µM |  |  |  |  |  |  |  |  |  | 
12 | CCN1c2ccccc2-n2c(C)nnc2-c2c1n[nH]c2-c1ccccc1 | > 100 µM | > 100 µM | 28.5 µM |  | > 100 µM | > 100 µM | > 100 µM | > 100 µM | > 100 µM |  |  |  |  |  |  |  |  |  |  | 
13 | CN(C)CCCOc1nc2c(c(=O)n(C)c(=O)n2C)n1C (tested in a mixture with another compound) | > 100 µM | > 100 µM |  | > 100 µM | > 100 µM | > 100 µM | > 100 µM | > 100 µM | 42.1 µM |  |  |  |  |  |  |  |  |  |  | 
14 | CC1=C(O)C(=O)[C@@H]2O[C@@H]2C1=O | 16 µM | 33.9 µM | 8.59 µM | 100 µM |  | 47.4 µM | 33.9 µM | 24.7 µM |  | 35.6 µM |  |  |  |  |  |  |  |  |  | 
15 | C=CCN1C(=O)/C(=C/c2ccccc2)N=C1SC1OC(COC(=O)c2ccccc2)C(OC(=O)c2ccccc2)C1OC(=O)c1ccccc1 (configuration not stated) | > 100 µM | > 100 µM | > 100 µM | > 100 µM |  | > 100 µM | > 100 µM | > 100 µM | > 100 µM | > 100 µM |  |  |  |  |  |  |  |  |  | 
16 | COc1ccc2[nH]c(O)c(/C=c3/cc4c(c(-c5cc(OC)c(OC)c(OC)c5)n3)=Nc3ccccc3-4)c2c1 | 21.5 µM | > 100 µM | 34 µM | > 100 µM | > 100 µM | > 100 µM | > 100 µM | > 100 µM | > 100 µM | > 100 µM | 3.67 µM | > 100 µM | 34 µM | 7.46 µM | 11.6 µM | 6.32 µM | 4.07 µM | > 100 µM | 3.77 µM | 18.5 µM
